Laboratory results reported in ChEMBL document CHEMBL5113550, “Optimization of Pyrimidine Compounds as Potent JAK1 Inhibitors and the Discovery of R507 as a Clinical Candidate” (ACS Med Chem Lett, 2022).
pIC50, pKi: −log10 of the molar value.

What was measured:
[1] = target: JAK3/JAK1 (Homo sapiens, UniProt P23458+P52333); assay: Inhibition of JAK1/JAK3 in human primary T-cells assessed as reduction of IL-2 stimulated STAT5 phosphorylation preincubated for 1 hr followed by IL-2 stimulation for 15 mins by FACS method; format: cell-based, T-cell
Chain of JAK3/JAK1 (P52333 whole entry): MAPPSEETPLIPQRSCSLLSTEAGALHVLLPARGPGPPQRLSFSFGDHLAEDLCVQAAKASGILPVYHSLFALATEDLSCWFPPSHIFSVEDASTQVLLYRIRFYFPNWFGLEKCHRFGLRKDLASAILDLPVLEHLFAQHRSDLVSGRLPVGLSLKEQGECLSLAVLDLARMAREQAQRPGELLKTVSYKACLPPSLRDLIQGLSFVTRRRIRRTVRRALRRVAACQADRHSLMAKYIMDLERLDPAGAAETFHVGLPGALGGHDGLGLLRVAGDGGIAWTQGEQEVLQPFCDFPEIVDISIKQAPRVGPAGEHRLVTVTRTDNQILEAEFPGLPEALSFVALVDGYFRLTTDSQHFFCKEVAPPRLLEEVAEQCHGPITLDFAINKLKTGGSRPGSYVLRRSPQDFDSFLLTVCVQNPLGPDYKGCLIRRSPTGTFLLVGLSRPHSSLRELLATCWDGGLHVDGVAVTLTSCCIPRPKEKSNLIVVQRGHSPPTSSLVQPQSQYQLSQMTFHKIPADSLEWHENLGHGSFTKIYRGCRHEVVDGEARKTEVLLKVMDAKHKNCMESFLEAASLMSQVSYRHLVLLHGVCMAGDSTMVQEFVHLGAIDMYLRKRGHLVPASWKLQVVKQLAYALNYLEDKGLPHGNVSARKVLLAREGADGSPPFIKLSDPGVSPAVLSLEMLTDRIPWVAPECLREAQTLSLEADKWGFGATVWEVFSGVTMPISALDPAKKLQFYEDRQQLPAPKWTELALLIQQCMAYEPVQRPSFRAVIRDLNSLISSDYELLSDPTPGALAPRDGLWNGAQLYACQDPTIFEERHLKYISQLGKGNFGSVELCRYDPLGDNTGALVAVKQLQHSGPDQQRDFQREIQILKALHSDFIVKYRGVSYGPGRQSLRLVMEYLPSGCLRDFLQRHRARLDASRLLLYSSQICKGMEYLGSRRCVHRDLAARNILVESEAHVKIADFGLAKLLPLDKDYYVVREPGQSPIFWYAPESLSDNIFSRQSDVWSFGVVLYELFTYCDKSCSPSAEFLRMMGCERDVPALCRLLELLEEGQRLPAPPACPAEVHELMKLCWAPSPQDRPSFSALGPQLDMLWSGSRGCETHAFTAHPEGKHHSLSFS
Chain of JAK3/JAK1 (P23458 whole entry): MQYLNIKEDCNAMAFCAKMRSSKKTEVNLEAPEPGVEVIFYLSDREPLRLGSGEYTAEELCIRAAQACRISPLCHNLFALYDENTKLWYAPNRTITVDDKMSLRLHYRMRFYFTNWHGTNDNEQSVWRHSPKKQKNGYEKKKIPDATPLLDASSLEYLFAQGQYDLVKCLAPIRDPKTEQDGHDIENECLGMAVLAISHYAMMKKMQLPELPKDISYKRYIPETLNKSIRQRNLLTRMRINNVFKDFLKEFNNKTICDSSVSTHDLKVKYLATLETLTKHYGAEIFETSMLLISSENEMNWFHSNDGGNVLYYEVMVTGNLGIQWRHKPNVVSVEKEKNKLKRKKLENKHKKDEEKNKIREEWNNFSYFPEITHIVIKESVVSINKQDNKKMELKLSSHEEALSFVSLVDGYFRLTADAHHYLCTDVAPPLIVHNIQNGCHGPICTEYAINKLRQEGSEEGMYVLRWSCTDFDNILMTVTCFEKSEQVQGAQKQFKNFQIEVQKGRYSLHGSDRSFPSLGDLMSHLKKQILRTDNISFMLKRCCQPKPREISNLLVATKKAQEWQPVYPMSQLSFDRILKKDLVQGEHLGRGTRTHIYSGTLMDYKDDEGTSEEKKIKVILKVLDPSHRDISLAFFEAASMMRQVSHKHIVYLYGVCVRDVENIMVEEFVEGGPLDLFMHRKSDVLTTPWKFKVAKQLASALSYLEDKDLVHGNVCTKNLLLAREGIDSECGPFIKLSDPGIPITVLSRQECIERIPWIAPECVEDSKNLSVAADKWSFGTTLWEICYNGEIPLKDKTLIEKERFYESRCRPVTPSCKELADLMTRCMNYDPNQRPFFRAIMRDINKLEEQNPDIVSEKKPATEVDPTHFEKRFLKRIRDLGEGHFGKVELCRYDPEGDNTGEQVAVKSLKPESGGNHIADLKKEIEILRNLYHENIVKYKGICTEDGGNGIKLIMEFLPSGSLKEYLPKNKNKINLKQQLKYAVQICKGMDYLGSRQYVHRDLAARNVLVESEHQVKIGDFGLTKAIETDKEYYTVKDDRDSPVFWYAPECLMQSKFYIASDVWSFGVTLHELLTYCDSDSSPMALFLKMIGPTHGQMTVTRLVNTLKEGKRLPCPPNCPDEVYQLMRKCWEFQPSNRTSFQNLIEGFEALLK

[2] = Plasma protein binding in human; format: ADME, cell-free; conditions: read-out: PPB (converted)
[3] = target: T1, Cytochrome P450 3A4 (Homo sapiens, UniProt P08684); assay: Inhibition of CYP3A4 (unknown origin) in absence of NADPH; format: ADME
T1 sequence (P08684 whole entry): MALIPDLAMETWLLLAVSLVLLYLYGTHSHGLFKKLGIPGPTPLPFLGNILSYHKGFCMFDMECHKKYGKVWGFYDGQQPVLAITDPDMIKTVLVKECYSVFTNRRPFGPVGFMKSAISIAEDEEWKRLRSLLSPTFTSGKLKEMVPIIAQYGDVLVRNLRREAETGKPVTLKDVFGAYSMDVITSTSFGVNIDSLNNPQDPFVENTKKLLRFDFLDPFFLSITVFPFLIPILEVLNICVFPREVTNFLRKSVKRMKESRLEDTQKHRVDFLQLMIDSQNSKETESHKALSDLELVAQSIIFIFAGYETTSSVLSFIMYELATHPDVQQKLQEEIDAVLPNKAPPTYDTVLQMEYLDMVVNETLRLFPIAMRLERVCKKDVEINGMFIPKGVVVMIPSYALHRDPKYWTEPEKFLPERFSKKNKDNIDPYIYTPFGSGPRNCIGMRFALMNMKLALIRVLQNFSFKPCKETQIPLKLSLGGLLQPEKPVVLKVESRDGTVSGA

[4] = target: Tyrosine-protein kinase JAK2 (Homo sapiens, UniProt O60674); assay: Inhibition of JAK2 signaling pathway in human CHEP cells assessed as inhibition of EPO-induced cell survival preincubated for 1 hr followed by EPO addition and measured after 48 hrs by CellTiter-Glo luminescent assay; format: toxicity, cell-based
Chain of Tyrosine-protein kinase JAK2 (O60674 whole entry): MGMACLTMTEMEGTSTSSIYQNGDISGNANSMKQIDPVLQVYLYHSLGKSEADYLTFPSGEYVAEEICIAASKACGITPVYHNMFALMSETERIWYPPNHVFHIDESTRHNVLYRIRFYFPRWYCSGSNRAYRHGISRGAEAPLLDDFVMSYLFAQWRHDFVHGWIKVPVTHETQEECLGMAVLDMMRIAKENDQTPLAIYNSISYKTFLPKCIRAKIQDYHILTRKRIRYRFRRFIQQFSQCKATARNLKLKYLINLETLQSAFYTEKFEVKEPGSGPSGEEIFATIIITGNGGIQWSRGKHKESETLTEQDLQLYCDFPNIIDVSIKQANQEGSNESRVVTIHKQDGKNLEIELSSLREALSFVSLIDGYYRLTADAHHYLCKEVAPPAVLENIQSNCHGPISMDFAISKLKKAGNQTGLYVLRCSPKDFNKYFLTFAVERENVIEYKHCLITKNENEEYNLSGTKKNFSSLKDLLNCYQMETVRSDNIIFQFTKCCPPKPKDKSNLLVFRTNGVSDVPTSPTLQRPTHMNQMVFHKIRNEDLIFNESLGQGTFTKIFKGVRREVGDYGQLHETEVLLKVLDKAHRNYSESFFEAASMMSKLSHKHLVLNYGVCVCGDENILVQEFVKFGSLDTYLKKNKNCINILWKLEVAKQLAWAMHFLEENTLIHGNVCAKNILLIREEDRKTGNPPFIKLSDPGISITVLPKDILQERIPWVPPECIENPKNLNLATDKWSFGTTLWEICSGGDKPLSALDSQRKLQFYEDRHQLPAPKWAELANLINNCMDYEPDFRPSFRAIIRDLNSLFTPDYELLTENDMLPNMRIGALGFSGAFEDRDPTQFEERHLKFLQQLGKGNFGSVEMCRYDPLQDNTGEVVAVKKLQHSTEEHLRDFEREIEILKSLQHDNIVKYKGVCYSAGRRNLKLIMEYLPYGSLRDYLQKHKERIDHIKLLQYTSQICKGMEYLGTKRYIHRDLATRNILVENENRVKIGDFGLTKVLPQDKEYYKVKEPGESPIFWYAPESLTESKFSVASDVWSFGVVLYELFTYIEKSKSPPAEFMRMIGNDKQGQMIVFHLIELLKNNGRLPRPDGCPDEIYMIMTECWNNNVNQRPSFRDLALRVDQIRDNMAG

[5] = organism: Homo sapiens; assay: Selectivity ratio of IC50 for inhibition of JAK2 signaling pathway in EPO-stimulated human CHEP cells to IC50 for inhibition of JAK1/JAK3 in human primary T-cells assessed as reduction of IL-2 stimulated STAT5 phosphorylation
[6] = Plasma protein binding in rat; format: ADME, cell-free; conditions: read-out: PPB (converted)
[7] = Inhibition of IL-2 stimulated IFN-gamma production in BALB/c mouse at 5 mg/kg, po pretreated for 30 mins followed by IL-2 stimulation and measured after 4 hrs by ELISA; format: functional; conditions: time 4.5 hrs
[8] = Inhibition of IL-2 stimulated IFN-gamma production in BALB/c mouse at 40 mg/kg, po pretreated for 30 mins followed by IL-2 stimulation and measured after 4 hrs by ELISA; format: functional; conditions: time 4.5 hrs
[9] = Oral bioavailability in Sprague-Dawley rat 5 mg/kg; format: ADME, organism-based; conditions: in vivo
[10] = target: T1, Cytochrome P450 3A4; assay: Inhibition of CYP3A4 (unknown origin) in presence of NADPH; format: ADME
[11] = target: T2, Cytochrome P450 1A2 (Homo sapiens, UniProt P05177); assay: Inhibition of CYP1A2 (unknown origin); format: ADME
T2 sequence (P05177 whole entry): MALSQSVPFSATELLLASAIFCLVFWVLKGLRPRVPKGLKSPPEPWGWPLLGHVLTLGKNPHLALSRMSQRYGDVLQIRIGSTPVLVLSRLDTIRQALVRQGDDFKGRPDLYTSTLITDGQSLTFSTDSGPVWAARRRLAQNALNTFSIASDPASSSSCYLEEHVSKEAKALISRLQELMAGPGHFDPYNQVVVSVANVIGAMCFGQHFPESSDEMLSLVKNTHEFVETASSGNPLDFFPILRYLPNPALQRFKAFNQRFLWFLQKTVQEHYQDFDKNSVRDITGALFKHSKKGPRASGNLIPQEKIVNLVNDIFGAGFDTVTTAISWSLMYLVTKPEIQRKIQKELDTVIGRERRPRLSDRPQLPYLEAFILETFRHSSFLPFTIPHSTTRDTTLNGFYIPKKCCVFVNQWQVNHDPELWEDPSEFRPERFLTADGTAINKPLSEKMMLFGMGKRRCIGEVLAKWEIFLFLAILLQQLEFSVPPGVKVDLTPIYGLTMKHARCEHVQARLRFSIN

[12] = target: Tyrosine-protein kinase SYK (Homo sapiens, UniProt P43405); assay: Inhibition of human full length recombinant N-terminal GST-tagged SYK expressed in baculovirus expression system at 250 nM by Z'-lyte assay

pIC50 [3] | pIC50 [10] | SMILES | pIC50 [4] | inhibition in vivo at 40 mg/kg [8] | further results
< 5.00 | 5.40 | Cc1cnc(Nc2ccc(N3CCN(C)CC3)nc2)nc1Nc1ccc2oc(=O)[nH]c2c1 | 7.08 | 82% | pIC50 [1]: 7.70; fraction unbound [2]: 0.19; Ratio IC50 [5]: 4; fraction unbound [6]: 0.16; inhibition in vivo at 5 mg/kg [7]: 30%; bioavailability [9]: 4%
5.14 | 6.30 | COc1cc(Nc2ncc(C)c(Nc3ccc4oc(=O)[nH]c4c3)n2)cc(C(F)(F)F)c1 | 5.77 | 90% | inhibition in vivo at 5 mg/kg [7]: 78%
< 5.00 | 5.57 | COc1cc(Nc2ncc(C)c(Nc3ccc4oc(=O)[nH]c4c3)n2)cc(C)c1OC | 7.38 |  | 
< 5.00 | 5.96 | COc1cc(Nc2ncc(C)c(Nc3ccc4oc(=O)[nH]c4c3)n2)cc(OC)c1OC | 7.09 | 88% | pIC50 [1]: 7.59; Ratio IC50 [5]: 3
5.32 | 6.40 | COc1ccc(Nc2ncc(C)c(Nc3ccc4oc(=O)[nH]c4c3)n2)cc1C(F)(F)F | 5.70 | 32% | 
 |  | Cc1cnc(Nc2ccc(N3CCOCC3)nc2)nc1Nc1ccc2oc(=O)[nH]c2c1 |  | 36% | pIC50 [1]: 7.66; bioavailability [9]: < 1%
< 5.00 | 6.15 | Cc1cnc(Nc2ccc(F)c(C(F)(F)F)c2)nc1Nc1ccc2oc(=O)[nH]c2c1 | 6.30 |  | 
< 5.00 | 5.54 | COc1cc(Nc2ncc(C)c(Nc3ccc4oc(=O)[nH]c4c3)n2)cc(C)c1C | 5.95 | 90% | pKi [11]: 5.22; inhibition in vivo at 5 mg/kg [7]: 68%
 |  | Cc1cnc(Nc2cccc(NS(C)(=O)=O)c2)nc1Nc1ccc2oc(=O)[nH]c2c1 |  | 15% | 
 |  | COc1cc(Nc2ncc(C)c(Nc3ccc4oc(=O)[nH]c4c3)n2)cc(C)c1F |  |  | inhibition [12]: < 50%; Ratio IC50 [5]: 24
 |  | Cc1cnc(Nc2cccc(S(C)(=O)=O)c2)nc1Nc1ccc2oc(=O)[nH]c2c1 |  | 56% | 
